Measurements from patent US10076504B2, “Glucagon antagonists” (Ligand Pharmaceuticals, Inc., priority 2014, dated 2018).

Legend:
[1] = Liver microsome incubation; type: in vitro ADME, mouse
Method: The compound of Formula IIIa (below) was incubated for 60 minutes at 37 C with mouse, rat, dog, monkey, and human liver microsomes.
Concentrations of IIIa were measured at multiple time points by LC-MS/MS. IIIa was stable with predicted clearance well below hepatic blood flow in all species.

fasting plasma glucose = experiment: Single ascending dose study, pharmacodynamics; type: in vivo, human
Method: Oral doses of IIIa were administered to normal healthy volunteers (NHV) and subjects with type 2 diabetes mellitus (T2DM). A single center, randomized, double-blind, placebo-controlled single ascending dose study was done in both NHV (n=48) and T2DM subjects (n=8). Dose escalation only occurred after review of safety and tolerability data from previous dose levels (n=8/cohort; 2-placebo & 6-IIIa). Dosing of the T2DM cohort was initiated only after the equivalent dose had been administered to NHV and safety data had been reviewed. All subjects were administered IIIa in the morning after an overnight fast with the exception of the NHV in the 40 mg cohort. NHV subjects in the 40 mg cohort initially received IIIa in a fasted state. Following a 3 week washout period, IIIa was readministered after breakfast at 40 mg to determine the effects of food consumption on pharmacokinetics.
Formula IIIa was well-absorbed after oral administration; peak plasma concentrations were reached approximately 5 to 8 hours post dose with a long elimination half-life of about 50 hours. Such data supports, for example, once-daily dosing of Formula III. The effects of Formula IIIa on fasting and post-prandial plasma glucose, glucagon, insulin, and glucagon-like peptide-1 (GLP-1) were evaluated in NH and T2DM subjects, and a meal tolerance test (MTT) and continuous glucose monitoring (CGM) were performed in T2DM subjects. […] The decrease in glucose was most obvious in the fasting plasma glucose (FPG) levels 24 and 48 hours post-dose. The magnitude of decrease in FPG was greater in subjects with T2DM than in NH subjects.

[2] = T2DM subjects, single dose 40 mg

Structure (SMILES): Cc1cc(C)c(-c2ccc(NC(=O)[C@H](Cc3ccc(C(=O)NCCS(=O)(=O)O)cc3)c3ccc(-c4ccc(C(C)(C)C)cc4)cc3)cc2)c(C)c1 [IIIa]
- 1st-order kinetic rate constant ([1]; Mouse liver microsomes, 60 minutes at 37 C): 0.0017 min⁻¹
- Predicted systemic clearance ([1]; Mouse, from liver microsomes): 7.05 mL/min/kg body weight
- glucose levels (fasting plasma glucose; NH subjects): small decreases in glucose levels approximating dose-dependency
- mean glucagon and total GLP-1 levels (fasting plasma glucose; NH subjects, dose-dependent up to 240 mg, 24 to 96 hours post-dose): increased
- glucose levels (fasting plasma glucose; T2DM subjects): lowered glucose levels
- duration of glucose suppression (fasting plasma glucose; T2DM subjects, single dose): continued through 48 hours
- lowering of fasting plasma glucose (fasting plasma glucose; [2]): 50 mg/dL
- lowering of fasting plasma glucose, placebo adjusted (fasting plasma glucose; [2]): 57 mg/dL
- changes in active GLP-1 or insulin levels (fasting plasma glucose; all dose groups, single dose): did not generate a consistent trend
- duration of glucose suppression (fasting plasma glucose; normal healthy volunteers): continued through 48 hours
- fasting plasma glucose (fasting plasma glucose; normal healthy volunteers, single dose 2 to 480 mg): lowered fasting plasma glucose
- 24-hour glucose AUC (continuous glucose monitoring) (fasting plasma glucose; subjects with T2DM): reduction
- mean glucagon and total GLP-1 levels (fasting plasma glucose; subjects with T2DM, compared to placebo, 24 to 72 hours post-dose): increased compared to placebo treatment
